The values that follow come from publication PMC3528769, “Comparative Study of the Fatty Acid Binding Process of a New FABP from Cherax quadricarinatus by Fluorescence Intensity, Lifetime and Anisotropy” (PLoS ONE, 2012).

Common to all, as to type: binding
Experiment [1] has as its target T1, Cq-FABP (Cherax quadricarinatus, UniProt L0I6Z9). In words: ANS fluorescence intensity titration and equilibrium displacement of ANS by fatty acids. The settings on record: calculated from equilibrium displacement experiments using the fluorescence intensity of ANS (Eq. 1); read-out: Kd,FA. How it is done:
(§1) Fluorescence emission spectra were measured at 25°C on a Cary-Eclipse spectrofluorimeter (Varian, CA, USA) equipped with a thermostated cell holder, using solutions (70 µl) placed in microcuvettes (pathlength, 0.3 cm). The binding of non-fluorescent fatty acids (PA, OA, LA, EPA and DHA) to Cq-FABP was measured indirectly by equilibrium displacement experiments using ANS as a fluorescent probe, either by measuring the fluorescence emission of ANS or by measuring the FRET between tryptophan and ANS, resulting in the quenching of donor fluorescence. The excitation wavelength was then set at 296 or 350 nm for tryptophan or ANS, respectively; the slit widths and PMT voltage were adjusted to optimize the fluorescence signal at 25°C. For titration experiments, the fluorescence emission spectrum of tryptophan or ANS was measured and the integrated fluorescence signal of tryptophan (315–360 nm) or ANS (440–600 nm) was calculated. For samples containing high concentrations of ANS, the inner-filter effect was not negligible and was corrected. UV-visible absorption spectra were carried out on a Uvikon XL spectrophotometer.
The equilibrium dissociation constant (Kd,FA) relative to the binding of fatty acids (FA) to Cq-FABP was determined by competition experiments using ANS displacement and linear regression of the following relationship: [drawing 1] (1) where Kd,ANS is the dissociation constant relative to the binding of ANS to the fatty acid binding site, Kd ^app ,ANS is the apparent dissociation constant of ANS obtained in the presence of a given fatty acid concentration.

For experiment [2], the target named is T1, Cq-FABP. In words: Steady-state FRET between the single Trp (W49) and ANS, Trp quenching and recovery by PA. The settings on record: read-out: Kd,PA. How it is done:
as §1

In experiment [3] the target is T1, Cq-FABP. Nature of the experiment: cis-Parinaric acid fluorescence intensity titration and competitive displacement. The following applies: calculated from the IC50 values (Eq. 2) using the fluorescence intensity of cis-parinaric acid; 7 µM CPA, 5 µM Cq-FABP; read-out: Kd,FA. From the text:
Cis-parinaric acid and DAUDA were characterized by fluorescence emission in the 380–500 nm region (λmax,em: 410 nm) and in the 480–650 nm region (λmax,em: 540 nm), respectively (excitation wavelengths were set at 320 or 335 nm for cis-parinaric acid or DAUDA, respectively). The fluorescence intensity enhancement upon binding to Cq-FABP was monitored on a Cary-Eclipse spectrofluorimeter as indicated above. All the fluorescence emission intensities were corrected for the inner-filter effect. The emission intensity of a given fluorophore in the presence of Cq-FABP was also systematically corrected for the emission intensity of the free fluorophore. The calculation of Kd,FA was performed by measuring the IC50 value (inhibition concentration 50%) characterizing each non-fluorescent FA. As DAUDA poorly binds to Cq-FABP (see results section), only cis-parinaric acid (CPA) was used for measuring IC50 values. Titration and equilibrium displacement experiments using CPA were performed in buffer C (supplemented with 10% DMSO (v/v)). For the determination of IC50 values, the number of complexes corresponding to [CPA] = 7 µM and [Cq-FABP] = 5 µM was varied by increasing the concentration of non-fluorescent FA. The IC50 value corresponds to the concentration of non-fluorescent FA that displaces 50% of CPA from the fatty acid binding site of Cq-FABP and is related to Kd,FA through the Cheng-Prusoff relationship: [drawing 2] (2)

Experiment [4] deals with T1, Cq-FABP. In words: BODIPY-C16 steady-state fluorescence anisotropy titration and competition. The settings on record: for Kd: read-out: Kd,FA. How it is done:
The binding of 4,4-difluoro-5, 7-dimethyl-4-bora-3a, 4a-diaza-s-indacene-3-hexadecanoic acid (BODIPY-C16) to Cq-FABP was investigated by measuring the steady-state fluorescence anisotropy parameter using a Beacon instrument (PanVera, Madison, USA), in a cell thermostatically held at 25°C. The excitation and emission bandpass filters were centered at 488 nm (±6 nm) and 525 nm (±15 nm), respectively. Titration experiments were performed in buffer C (supplemented with 10% DMSO (v/v)) by maintening a constant concentration of BODIPY-C16 (200 nM) and by adding increasing concentrations of Cq-FABP. Using a vertical direction for the polarized excitation source, the steady-state fluorescence anisotropy (r) was calculated according to: [drawing 3] (3) where IV and IH correspond to the parallel (vertical) and perpendicular (horizontal) fluorescence emission intensity components, respectively. The fraction of BODIPY-C16/Cq-FABP complexes (i.e. the fraction of BODIPY-C16 bound to Cq-FABP), fb, was calculated using the following relationship: [drawing 4] (4) where r is the measured fluorescence anisotropy value, rf and rb correspond to the fluorescence anisotropy values of free BODIPY-C16 (ligand in the free state, measured in the absence of Cq-FABP) and Cq-FABP-bound BODIPY-C16 (ligand in the bound state, corresponding to the maximum anisotropy value found at the plateau), respectively. […] The Kd characterizing the BODIPY-C16/Cq-FABP complex (Kd,C16) was calculated by fitting the plot of fb versus [Cq-FABP] using the Graphpad Prism 5.0 software.
The fluorescence anisotropy-based assay was also used in competition experiments to calculate the Kd values (Kd,FA) characterizing non-fluorescent fatty acids. The measurement of the apparent Kd value characterizing the BODIPY-C16/Cq-FABP complex (Kd ^app ,C16) under different concentration conditions for the non-fluorescent FA allows the calculation of Kd,FA according to: [drawing 5] (5) where Kd,C16 corresponds to the Kd characterizing the BODIPY-C16/Cq-FABP complex (in the absence of any non-fluorescent FA) and Kd ^app ,C16 corresponds to the apparent dissociation constant obtained for a given concentration of non-fluorescent FA. The calculation of Kd,FA was also performed in an independent manner by measuring the IC50 value characterizing each non-fluorescent FA. In this approach, the number of complexes corresponding to [C16] = 200 nM and [Cq-FABP] = 5 µM was varied by increasing the concentration of non-fluorescent FA. The IC50 value corresponds to the concentration of non-fluorescent FA that displaces 50% of C16 from the fatty acid binding site of Cq-FABP and is related to Kd,FA through the Cheng-Prusoff relationship: [drawing 6] (6)
On the technique in general: Polarisation of emitted light reports the rotation of a fluorescent probe.

T1 sequence (L0I6Z9 entry or part of it): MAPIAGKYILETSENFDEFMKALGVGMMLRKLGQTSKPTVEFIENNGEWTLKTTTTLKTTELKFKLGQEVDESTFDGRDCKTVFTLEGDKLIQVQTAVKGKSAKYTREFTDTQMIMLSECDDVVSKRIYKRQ

One may read the IC50 as the midpoint of a concentration-inhibition curve. For `CCCCCCCCCCCCCCCC(=O)O` [PA, Palmitic acid], the Kd at Cq-FABP [1] was 1100 ± 300 nM; on Cq-FABP [2] (FRET efficiency parameter, from slope of Kd app,PA versus [ANS] (Fig. 5B), average Kd,ANS 27.85 µM), 830 nM; at Cq-FABP [2] (FRET efficiency parameter, y-intercept of Kd app,PA versus [ANS] (Fig. 5B)), 1900 nM; at Cq-FABP [2] (Trp fluorescence intensity parameter, from slope of Kd app,PA versus [ANS] (Fig. 5A), average Kd,ANS 27.85 µM), 1290 nM; on Cq-FABP [2] (Trp fluorescence intensity parameter, y-intercept of Kd app,PA versus [ANS] (Fig. 5A)), 1470 nM; at Cq-FABP [3], 1800 ± 400 nM. In addition, the Kd was 1150 ± 200 nM at Cq-FABP [4] (calculated from the IC50 values, using Eq. 6, 200 nM BODIPY-C16, 5 µM Cq-FABP) and 1600 ± 300 nM at Cq-FABP [4] (calculated from the Kd app,C16 values, using Eq. 5, 200 nM BODIPY-C16). Also, the IC50 on Cq-FABP [4] (200 nM BODIPY-C16, 5 µM Cq-FABP, read-out: IC50 (displaces 50% of BODIPY-C16 from the fatty acid binding site)) stood at 1170 nM.
